Non-standard residues stand in square brackets, D forms with d. Residues, ends and D or L forms follow the SMILES beside them. ξ: configuration not given here. *: point of attachment. ξF = NC(Cc1ccccc1)C(=O)O; Cbz = O=C(OCc1ccccc1)*
Assays:
[1] = method code SF, from Hansch, C. & Leo, A. (1987). Log P database [Dataset]. Pomona College Medicinal Chemistry Project.

In the case of `CCC(C)NC(=O)C(C)=Cc1ccccc1` (stereo not given), the logP was 3.08.

Work on `O=NN(CCCl)C(=O)NC1CCCCCCCCCCC1` yielded a logP of 5.64.

Compound `CCC(C)NC(=O)C(C)=Cc1ccc(Cl)cc1` (stereo not given) has a logP of 3.63.

In the case of `C[C@]1(O)CC[C@H]2[C@@H]3CCC4=CC(=O)CC[C@]4(C)[C@@]3(F)[C@@H](O)C[C@@]21C`, the logP was 2.38.

For `CC(=O)Nc1cccc2nccnc12`, the logP was 1.06.

Work on `CCC(C)NC(=O)C(=Cc1ccccc1)NC(=O)c1ccccc1` (stereo not given) yielded a logP of 2.61.

With `COc1cc(S(C)=O)ccc1-c1cn2cccnc2n1` (stereo not given) the logP was 0.64.

For `CCC(C)NC(=O)C=C(c1ccccc1)c1ccc(Cl)cc1` (stereo not given), the logP was 4.11.

With `CC12CC3(C)CC(C)(C1)CC(NC(=O)N(CCCl)N=O)(C2)C3` the logP was 5.75.

`[O-][n+]1cc(-c2ccccc2)ncc1-c1ccccc1` showed a logP of 3.27.

Compound `CCC(C)c1cccc(C(C)C)c1O` (stereo not given) has a logP of 3.85.

Compound `FC(F)(F)CN(CC(F)(F)F)c1ccc(Br)cc1` has a logP of 4.7.

`O=NN(CCCl)C(=O)Nc1ccccc1` gave a logP of 2.49.

In the case of `CCSC(=O)Oc1cccc2cccnc12`, the logP was 2.74.

For `CCCCOc1ccc(O)cc1`, the logP was 2.9.

For `COc1cccc(NC(=O)N(CCCl)N=O)c1`, the logP was 2.66.

Compound `CCC(C)NC(=O)C=C(N)c1ccc(Cl)cc1` (stereo not given) has a logP of 2.85.

`CC(=O)Nc1ccc2nccnc2c1` showed a logP of 1.

Work on `COc1ccnc(C#N)n1` yielded a logP of 0.86.

Compound `C[C@]12CCC(=O)C=C1CC[C@@H]1[C@@H]2C(=O)C[C@@]2(C)[C@H]1CC[C@]2(O)C(=O)CO` has a logP of 1.64.

Compound `CCOC(=O)c1n[nH]c2ccc(CC)cc2c1=O` has a logP of 2.01.

`CCCC(=CC(=O)NC(C)CC)c1ccc(Cl)cc1` (stereo not given) showed a logP of 4.34.

With `FC(F)(F)CN(CC(F)(F)F)c1ccccc1` the logP was 3.69.

With `CCC(C)NC(=O)C(=Cc1ccccc1)NC(C)=O` (stereo not given) the logP was 1.76.

Compound `CC(=O)Nc1cnc2ccccc2n1` has a logP of 1.53.

In the case of `CCC(C)c1cccc(C(C)CC)c1O` (stereo not given), the logP was 4.38.

Compound `O=NN(CCCl)C(=O)Nc1ccc(Cl)cc1` has a logP of 3.16.

Work on `CC(C)(C)c1cc(O)ccc1[N+](=O)[O-]` yielded a logP [1] of 3.65.

Compound `C#CCCC(=O)N(C)c1ccc(S(=O)(=O)N(C)C)cc1` has a logP [1] of 0.88.

`CC1=Nc2ccc(Br)cc2S(=O)(=O)N1` gave a logP [1] of 1.37.

`CC(C)c1cccc(O)c(=O)c1` showed a logD ([1]; pH 5.0) of 1.82.

`CCOC(=O)Cn1ccnc1C=Cc1ccc([N+](=O)[O-])o1` gave a logP [1] of 1.27.

Work on `O=CN(Cc1ccccc1)c1ccccc1` yielded a logP [1] of 2.62.

`N#CSc1ccccc1` showed a logP [1] of 2.54.

Compound `CC(C)N(Cc1cccnc1)C(C)C` has a logD ([1]; pH 11.0) of 2.27.

`CC1OC(=O)c2ccccc21` (stereo not given) showed a logP [1] of 1.41.

`CCOP(=O)(OCC)Oc1ccc(SC)c(Cl)c1` gave a logP [1] of 3.48.

Compound `c1ccc(-c2ccc(C(c3ccccc3)n3ccnc3)cc2)cc1` (stereo not given) has a logP [1] of 4.77.

For `CCC1OC(=O)C(C)C(OC2CC(C)(OC)C(O)C(C)O2)C(C)C(OC2OC(C)CC(N(C)C)C2O)C(C)(O)CC(C)C(=O)C(C)C(OC(C)=O)C1C` (stereo not given), the logP [1] was 3.32.

With `CCCCN(C)C` the logP [1] was 1.7.

`CC(=O)C(=Cc1ccccc1C)C(C)=O` showed a logP [1] of 1.98.

`CCOC(=O)[C@H](O)[C@@H](O)C(=O)OCC` gave a logP [1] of -0.29.

Compound `CC(=O)Nc1cccc(OCc2cccc(N3C(N)=NC(N)=NC3(C)C)c2)c1` has a logD ([1]; pH 13.0) of 1.15.

For `CCCCCc1ccc(O)cc1`, the logP [1] was 4.06.

In the case of `CNC(=O)N(C)c1ccccc1`, the logP [1] was 1.02.

With `CCOC(=O)c1ccc([N+](=O)[O-])cc1` the logD ([1]; pH 7.0) was 2.33.

With `OC(C1CO1)C(O)C1CO1` (stereo not given) the logP [1] was -1.29.

Compound `O=C(Nc1ccccc1)Oc1ccccc1` has a logP [1] of 3.3.

Compound `COc1ccccc1C=CC(=O)OCCOc1ccc(C=O)cc1OC` has a logP [1] of 3.65.

`CCOC(=O)C(=Cc1cccc([N+](=O)[O-])c1)C(=O)OCC` showed a logP [1] of 2.71.

In the case of `CC(C)[C@H](NC(=O)C(Cc1ccccc1)NC(=O)OCc1ccccc1)C(=O)O` (stereo not given in full) (Cbz-[ξF]-Val-OH), the logP [1] was 2.88.

`OC(c1ccccc1)(c1ccccc1)c1ccccc1` gave a logP [1] of 3.68.

Compound `CCN(CC)c1ccc(CO)cc1` has a logP [1] of 2.29.

`CS(=O)(=O)NN=Cc1ccccc1` showed a logP [1] of 1.2.

With `CSc1ccc(NC(C)=O)cc1` the logP [1] was 2.03.

With `COc1ccc(-c2nc3cnccc3[nH]2)c(OCCCCl)c1` the logP [1] was 3.53.

With `CC(N)=S` the logP [1] was -0.26.

Work on `NC(=O)NC1OC(=O)c2ccccc21` (stereo not given) yielded a logP [1] of 0.49.

Compound `O=C(Nc1ccc(Cl)c(Cl)c1)C1CC1` has a logP [1] of 3.83.

Work on `C=C(CC(Cl)(Cl)Cl)c1ccccc1` yielded a logP [1] of 4.56.

With `CCOC(=O)C(C#N)=Cc1ccccc1` the logP [1] was 2.43.

`c1ccc(COc2ccccc2)cc1` showed a logP [1] of 3.79.

Work on `Cn1cnc2ccccc2c1=O` yielded a logP [1] of 0.69.

Compound `CC(=O)C(=Cc1ccc(Br)cc1)C(C)=O` has a logP [1] of 2.75.

With `CCOC(=O)C(=Cc1cccc(OC)c1OC)C(C)=O` the logP [1] was 2.21.

Work on `CN(C)C(=O)Oc1ccccc1Br` yielded a logP [1] of 2.17.

With `c1ccc(-c2ccc3ccccc3n2)cc1` the logP [1] was 3.9.

With `CC(C)C(=O)Nc1ccc(Cl)c(Cl)c1` the logP [1] was 3.72.

Work on `CCOC(=O)CC(=O)C=Cc1ccc(C)cc1` yielded a logP [1] of 2.63.

`N#CN=[N+]([O-])c1ccc(C(F)(F)F)cc1` showed a logP [1] of 2.47.

With `O=CC(CO)OC(C=O)n1cnc2c(O)ncnc21` (stereo not given) the logP [1] was -2.11.

Work on `COc1ccccc1C=CC(=O)ON=Cc1ccc(OCCO)c(OC)c1` yielded a logP [1] of 3.56.

Work on `O=C(O)c1cc(=O)c2ccccc2o1` yielded a logD ([1]; pH 0.7) of 1.63.

`O=C(/C=C/c1ccccc1)Nc1ccccc1` showed a logP [1] of 3.61.

`COC(=O)Cc1cccs1` gave a logP [1] of 1.51.

With `O=C(N[C@H](CO)[C@H](O)c1ccc(-c2ccccn2)cc1)C(F)(F)F` the logP [1] was 1.31.

`CC(=O)Nc1cn[nH]c1` showed a logP [1] of -0.38.

In the case of `CN(Cc1ccccc1)/N=N/c1ccc(C#N)cc1`, the logP [1] was 3.82.

Work on `NCCc1c[nH]c2ccc(O)cc12` yielded a logP [1] of 0.21.

`Cc1cccc(C)c1[N+](=O)[O-]` showed a logP [1] of 2.95.

With `CNC(=O)ON=CC(C)(C)[N+](=O)[O-]` the logP [1] was 0.36.

`CCOP(=S)(Oc1ccc(C#N)cc1)c1ccccc1` (stereo not given) showed a logP [1] of 4.29.

Work on `CC(=O)Nc1ccccc1C(F)(F)F` yielded a logP [1] of 1.11.

In the case of `CC(=O)Nc1ccc2c(c1)S(=O)(=O)c1ccccc1C2=O`, the logP [1] was 2.35.

Compound `CCOC(=O)C(=O)OCC` has a logP [1] of 0.56.

Work on `Cc1ccsc1` yielded a logP [1] of 2.34.

In the case of `CCOC(=O)C(=Cc1ccc(O)c(OC)c1)C(=O)OCC`, the logP [1] was 2.89.

Compound `CN(C)/N=N/c1ccccc1Cl` has a logD ([1]; pH 7.4) of 3.03.

Work on `Nc1cn[nH]c1` yielded a logD ([1]; pH 13.0) of -1.09.

In the case of `CC1(C)N=C(N)N=C(N)N1c1cccc(COc2cccc(NC(N)=O)c2)c1`, the logD ([1]; pH 13.0) was 0.9.

In the case of `CC(=O)Nc1cccc(OCc2cccc(/N=C(\N)N=C(N)N)c2)c1`, the logD ([1]; pH 13.0) was 1.82.

For `CC(C)C#CN(C)C(C)C`, the logD ([1]; pH 9.2) was 2.29.

`Cc1cccc2cccnc12` showed a logP [1] of 2.6.

Work on `O=S1(=O)NC(Cc2ccccc2)=Nc2ccccc21` yielded a logP [1] of 1.89.

`O=C1OC(O)c2ccccc21` (stereo not given) gave a logP [1] of 0.57.

Work on `NC(=O)C(Cl)(Cl)Cl` yielded a logP [1] of 1.04.

Work on `COC[C@H]1O[C@@H](O)[C@H](NC(=O)N(CCCl)N=O)[C@@H](OC)[C@@H]1OC` yielded a logP [1] of 0.8.

For `CN(C)C(=O)Oc1ccccc1[N+](=O)[O-]`, the logP [1] was 1.35.

`O=C(O)COc1ccccc1-c1ccccc1` showed a logP [1] of 2.83.

`CC1=Nc2c(I)cc(Cl)cc2S(=O)(=O)N1` gave a logP [1] of 1.81.

`Clc1nnnn1-c1ccccc1` gave a logP [1] of 1.48.

`NC(=O)C(F)(F)F` gave a logP [1] of 0.12.

Compound `CCC(C)NC(=O)C(=Cc1ccccc1)SC` (stereo not given) has a logP of 3.53.

For `C[C@@H]1C[C@H]2[C@@H]3C[C@H](F)C4=CC(=O)C(Cl)=C[C@]4(C)[C@@]3(F)[C@@H](O)C[C@]2(C)[C@@]1(O)C(=O)CO`, the logP [1] was 2.58.

`CCOCOCC` showed a logP [1] of 0.84.

For `O=C(CCCN1CCC(n2c(=O)[nH]c3ccccc32)CC1)c1ccc(F)cc1`, the logD ([1]; pH 7.4) was 3.91.

In the case of `NC(=O)c1ccccc1Br`, the logP [1] was 0.73.

For `N#Cc1cccc(C(N)=O)c1`, the logP [1] was 0.52.

Work on `ClC(Cl)(Cl)Sc1ccccc1` yielded a logP [1] of 3.78.

For `CN[C@@H](C)Cc1ccccc1`, the logD ([1]; pH 13.0) was 2.07.

— the SangsterLogP compilation
